{"source": "patent US12721912B2", "about": "“Radiopharmaceutical compositions for actinium in targeted radionuclide therapy” (Curium US LLC, priority 2024, dated 2026)", "key": {"[1]": {"test_system": "patients with mCRPC", "settings": "cited from earlier work"}, "[2]": {"settings": "cited from earlier work"}, "[3]": {"experiment": "Metal scavenger (DTPA) formulations: radiochemical stability by radio-TLC at 40° C. (Table 17)", "type": "physicochemical", "settings": "11.3 mg/ml sodium ascorbate formulation, 0.0005-0.01 mg/ml DTPA", "experimental": "The mixture was then divided into four samples which were diluted with suitable amount WFI and DTPA solution to achieve concentrations of 0.0005 mg/ml, 0.001 mg/ml, 0.005 mg/ml, and 0.01 mg/ml of DTPA in the final formulations. […] The samples were kept at 40° C."}, "[4]": {"test_system": "patients with mCRPC", "settings": "cited from earlier work", "remark": "listed apart in the source"}, "[5]": {"experiment": "Process A / process B injection stored at 5, 22.5, 32.5 and 40° C.: radiochemical purity by radio-TLC (Tables 21, 22)", "type": "physicochemical", "settings": "5-40° C.", "method": "The radio-TLC method was performed as follows: 5 μl or 10 μl of the sample was spotted onto the application line (1.5 cm from the lower edge of the plate) of a TLC plate (Merck Silica Gel 60 F254, plate size 20×100 mm). The TLC plate was developed in a TLC chamber using 0.1 M citric acid (adjusted to pH 5) as mobile phase. The plate was removed from the chamber when the eluent front reached 7.5 cm distance from the application line. The plates were analyzed with a radio-TLC scanner after secular equilibrium between ^225Ac and daughter nuclides was reached (minimum of 7 hours). […]\nIn process B, radiolabeling is performed in 11.3 mg/ml sodium ascorbate solution and the 0.04 M HCl is neutralized by adding 1 ml of 0.04 M NaOH solution into the reactor prior to labeling. The final formulation in process B is prepared to an intended radioactivity concentration by diluting with 11.3 mg/ml sodium ascorbate solution.\nTo compare the processes, ^225Ac-PSMA I&T injection was prepared at around 1 mCi scale using both processes. […] Radioactivity concentration was 468 kBq/ml in process A and 969 kBq/ml in process B. […]\nThe purity of ^225Ac-PSMA I&T samples was analyzed by the radio-TLC and HPLC fraction collection methods described previously at different time points."}, "[6]": {"settings": "subgroup of 11 patients with prior ^177Lu-PSMA treatment"}, "[7]": {"settings": "subgroup with prior ^177Lu-PSMA radioligand therapy"}}, "note": "Where two headings read alike, the source gives them in different places.", "data": [{"substance": "(25)-2-[[(1S)-1-carboxylato-5-[[8-[[(5R)-5-carboxylato-5-[[(2R)-2-[[(2R)-2-[[(4R)-4-carboxylato-4-[4,7,10-tris(carboxylatomethyl)-1,4,7,10-tetrazacyclododec-1-yl]butanoyl]amino]-3-(4-hydroxy-3-iodophenyl)propanoyl]amino]-3-phenylpropanoyl]amino]pentyl]amino]-8-oxooctanoyl]amino]pentyl]carbamoylamino]pentanedioate; hydron; actinium-225(3+) [^225Ac-PSMA I&T]", "values": [{"measurement": "Grade 3 anemia after TAT", "setting": "[1]; 2 of them with grade 2 anemia at baseline", "value": "3 of the 14 patients"}, {"measurement": "Biochemical response PSA50", "setting": "[1]; 14 patients, 7.8 MBq per cycle", "value": 50, "unit": "%"}, {"measurement": "Grade 1 nephrotoxicity", "setting": "[1]; 14 patients, FIG. 13", "value": "one"}, {"measurement": "Hematologic toxicity", "setting": "[1]; 14 patients, FIG. 13", "value": "mild"}, {"measurement": "Acute toxicity during hospitalization", "setting": "[1]; 14 patients", "value": "No acute toxicity"}, {"measurement": "Best PSA response after TAT (PSA decline ≥50%)", "setting": "[1]; 14 patients", "value": 7, "unit": "patients"}, {"measurement": "Grade 3 leukopenia", "setting": "[1]; 14 patients", "value": 1, "unit": "patient"}, {"measurement": "Major toxicity", "setting": "[1]; 14 patients", "value": "xerostomia"}, {"measurement": "Newly diagnosed grade 1 or 2 xerostomia after TAT", "setting": "[1]; 14 patients", "value": 5, "unit": "patients"}, {"measurement": "No PSA decline at any time", "setting": "[1]; 14 patients", "value": "Three"}, {"measurement": "No xerostomia at all", "setting": "[1]; 14 patients", "value": "One"}, {"measurement": "PSA decline of any amount", "setting": "[1]; 14 patients", "value": 11, "unit": "patients"}, {"measurement": "Preexisting xerostomia after ^177Lu-PSMA, no worsening after TAT", "setting": "[1]; 14 patients", "value": "Eight"}, {"measurement": "Any PSA decline", "setting": "[1]; [6]", "value": 8, "unit": "patients"}, {"measurement": "PSA decline of at least 50%", "setting": "[1]; [6]", "value": 5, "unit": "patients"}, {"measurement": "Any PSA decline", "setting": "[1]; [7]", "value": 73, "unit": "%"}, {"measurement": "PSA decline ≥50%", "setting": "[1]; [7]", "value": 45, "unit": "%"}, {"measurement": "Absorbed dose, left kidney", "setting": "[2]; 8.1 MBq, SPECT at 24 h p. i.", "value": "0.18 SV(RBE=5)MBq"}, {"measurement": "Absorbed dose, right kidney", "setting": "[2]; 8.1 MBq, SPECT at 24 h p. i.", "value": "0.17 SV(RBE=5)MBq"}, {"measurement": "Absorbed dose, small lesion in the right hip", "setting": "[2]; human, in vivo", "value": "0.26 SV(RBE=5)MBq"}, {"measurement": "Effect of DTPA on the stability", "setting": "[3]", "value": "significantly reduce the stability"}, {"measurement": "Biochemical response PSA50", "setting": "[4]; 1 patient, 8 MBq per cycle", "value": 100, "unit": "%"}, {"measurement": "Major toxicity", "setting": "[4]; 1 patient, 8 MBq per cycle", "value": "xerostomia"}, {"measurement": "Main TAT-related side effect", "setting": "[4]; already preexisting after 10 cycles of RLT", "value": "grade 2 xerostomia"}, {"measurement": "Hematological side effects", "setting": "[4]; human, in vivo", "value": "No TAT-related grade 3/4 hematological side effects"}, {"measurement": "Response", "setting": "[4]; two cycles after failure of ^177Lu-PSMA-617", "value": "encouraging response"}, {"measurement": "Radiochemical purity by the radio-TLC method after 120-hour time point", "setting": "[5]", "value": "greater than 98%"}]}]}
